Reference: patent US20100179225A1, “POI Prevention” (CYTOKINE PHARMASCIENCES, INC., priority 2008, published 2010)

Columns and labels:
p38-MAPK = p38-MAPK activation in CSF-1 mutant op−/− mice (Pathscan-Phospho-p38α-ELISA); type: in vivo; details: 5 mg/kg i.v. preoperative, 20 minutes after IM, mean±SEM
Source text: Male C57BL/6J mice ([…] bodyweight) were obtained from Harlan-Winkelmann (Borchen, Germany). CSF-1 mutant op−/− mice (strain B6C3Fe a/a-Csf1op) and populations of unknown heterozygous or wildtype genotype (op+/?) of mixed gender were used at an age of 6 weeks and bred as described before (Wehner S, Behrendt F F, Lyutenski B N et al. Inhibition of macrophage function prevents intestinal inflammation and postoperative ileus in rodents. Gut 2007; 56:176-185). op−/− mice were phenotyped by the absence of incisors at day P10. All experiments were performed in accordance with the federal law regarding the protection of animals. The principles of laboratory animal care were followed. Animals were maintained on a 12-hour light/dark cycle and provided with commercially available rodent chow and tap water ad libitum.
p38-MAPK phosphorylation was evaluated in unoperated homozygous colony stimulating factor-1 mutant mice (op−/−) mice, or in op−/− and op+/? mice (a mixed population of unknown heterozygous +/− or homozygous +/+ wildtype mice) 20 minutes after IM. […] Additionally, CNI-1493 (5 mg/kg) pretreated op−/− mice were analyzed. In this experiment, p38-MAPK phosphorylation was quantified by the Pathscan-Phospho-p38α-ELISA following manufacturer's instructions. Phospho-p38 content of each probe was determined in duplicate from lysates with 6.25 μg total protein content.

[1] = tested on: apoptotic cells in graft muscularis; assay: Apoptosis within smooth muscle layer of grafts (TUNEL); type: in vivo, Lewis rats; details: 1 mg/kg
Protocol: (§1) Syngeneic orthotopic small intestinal transplantation was performed in Lewis rats as previously described (Schwarz N T, Nakao A, Nalesnik M A, Kalff J C, Murase N, Bauer A J. Protective effects of ex vivo graft radiation and tacrolimus on syngeneic transplanted rat small bowel motility. Surgery 2002; 131: 413-423). […] Then the graft vascular bed was perfused with chilled UW solution (University of Wisconcin) and the intestinal lumen was irrigated with 50 ml cold 0.9% NaCl solution containing […]. neomycin sulfate (Uro Nebacetin N, Nycomed, Germany). The graft was stored in cold UW solution during the preparation of the recipient. An end-to-side anastomosis between the graft aorta and the recipient infra-renal aorta, and between the graft vein and recipient vena cava, was performed. Approximately 80% of the recipient intestine was removed and enteric continuity was restored by proximal and distal end-to-end intestinal anastomoses. […]
Apoptotic cells within the smooth muscle layer of the grafts were detected 3 and 18 h after reperfusion by detection of DNA double strand breaks with a commercially available TUNEL kit (Roche, Mannheim, Germany) according to the manufactures instructions.

[2] = tested on: circular smooth muscle of the graft; assay: Mechanical in vitro activity of mid-jejunum graft circular smooth muscle (bethanechol); type: in vivo, Lewis rats; details: 1 mg/kg i.v. 90 min before; 18 h reperfusion; 100 μmol/L bethanechol
Protocol: as §1, with “recipient.” for “recipient. An end-to-side anastomosis between the graft aorta and the recipient infra-renal aorta, and between the graft vein and recipient vena cava, was performed. Approximately 80% of the recipient intestine was removed and enteric continuity was restored by proximal and distal end-to-end intestinal anastomoses.”
Mechanical in vitro activity of the mid-jejunum was evaluated at 18 hours after reperfusion using smooth muscle strips of the circular muscularis as described previously (N=8 each) (Kalff J C, Schraut W H, Simmons R L, Bauer A J. Surgical manipulation of the gut elicits an intestinal muscularis inflammatory response resulting in postsurgical ileus. Ann Surg 1998; 228: 652-663). […] The contractile response was analyzed with the ADI Chart© software and the contractions were calculated as grams per square millimeter per second by conversion of the weight and length of the strip to square millimeters of tissue.

Structure (SMILES)	p38-MAPK phosphorylation levels (phospho-p38 ELISA) (p38-MAPK)	number of apoptotic bodies in muscularis ([1]; 3 h after reperfusion)	number of apoptotic bodies in muscularis ([1]; 18 h after reperfusion)	circular smooth muscle contractile force [2] [grams/mm2/sec]	increase in circular smooth muscle contractile activity in comparison to the vehicle grafts [2] [%]
C/C(=N\N=C(N)N)c1cc(NC(=O)CCCCCCCCC(=O)Nc2cc(/C(C)=N/N=C(N)N)cc(/C(C)=N/N=C(N)N)c2)cc(/C(C)=N/N=C(N)N)c1.Cl.Cl.Cl.Cl [CNI-1493]	3.24±0.66	–	–	–	–
C/C(=N\N=C(N)N)c1cc(NC(=O)CCCCCCCCC(=O)Nc2cc(/C(C)=N/N=C(N)N)cc(/C(C)=N/N=C(N)N)c2)cc(/C(C)=N/N=C(N)N)c1.CS(=O)(=O)O.CS(=O)(=O)O.CS(=O)(=O)O.CS(=O)(=O)O [CPSI-2364]	–	21.0	7.2	3.63	96
